Source: patent publication US20070134261A1, “Effectors of innate immunity” (priority 2001, published 2007)
Values after ≈ are worked out from the molar mass of the structure shown. Where two headings read alike, the source gives them in different places. Marks after values point to notes of the source that are not given here. Residues, ends and D or L forms follow the SMILES beside them.

Legend:
S. Typhimurium SL1344 = assay: Intracellular survival/replication of S. Typhimurium SL1344 in IFN-γ-primed RAW cells (gentamicin-resistance assay); assay type: cell-based, Salmonella Typhimurium; conditions: pretreated with inhibitor 30 min prior to infection (50 μM U 0126, 50 μM PD 98059)
[1] = system: RAW 264.7 mouse macrophage cells; assay type: cell-based; conditions: Peptide 20 μg/ml; 100 ng/ml E. coli 0111:B4 LPS, 6 h
BALB/c mice = assay: Lethal endotoxemia in galactosamine-sensitized BALB/c mice; assay type: in vivo; conditions: 2 μg LPS; peptide 200 μg/mouse = 8 mg/kg IP 15 min after LPS; 48 hours; no peptide 10
Salmonella = Salmonella infection in BALB/c mice (viable bacteria in spleen); assay type: in vivo, mouse; conditions: mouse, in vivo, ip
Protocol: (§1) BALB/c mice were given 1×10^5 Salmonella and cationic peptide (200 μg) by intraperitoneal injection. The mice were monitored for 24 hours at which point they were euthanized, the spleen removed, homogenized and resuspended in PBS and plated on Luria Broth agar plates with Kanamycin (50 μg/ml). The plates were incubated overnight at 37° C. and counted for viable bacteria (Table 49 and 50). CD-1 mice were given 1×10^8 S. aureus in 5% porcine mucin and cationic peptide (200 μg) by intraperitoneal injection (Table 51). The mice were monitored for 3 days at which point they were euthanized, blood removed and plated for viable counts. CD-1 male mice were given 5.8×10^6 CFU EHEC bacteria and cationic peptide (200 μg) by intraperitoneal (IP) injection and monitored for 3 days (Table 52). […] Many of the cationic peptides were shown not to be directly antimicrobial as tested by the Minimum Inhibitory Concentration (MIC) assay (Table 54).

S. aureus = assay: Murine S. aureus infection model (CD-1 mice); assay type: in vivo, mouse; conditions: peptide 200 μg IP; for CFU/ml (blood): 3 days, No Peptide 7.61 ± 1.7 × 10^3; for # Mice Survived (3 days)/Total mice in group: No Peptide 6/8
Protocol: as §1

[2] = assay type: cell-based
[3] = system: human bronchial epithelial cells (HBE); assay: LDH release assay (Cytotoxicity Detection Kit); assay type: cell-based; conditions: 100 μg/ml, 24 hours; no peptide control 1.0 ± 0.05
Protocol: (§2) The potential toxicity of the peptides was measured in two ways. First, the Cytotoxicity Detection Kit (Roche) (Lactate dehydrogenase-LDH) Assay was used. It is a colorimetric assay for the quantification of cell death and cell lysis, based on the measurement of LDH activity released from the cytosol of damaged cells into the supernatant. LDH is a stable cytoplasmic enzyme present in all cells and it is released into the cell culture supernatant upon damage of the plasma membrane. An increase in the amount of dead or plasma membrane-damaged cells results in an increase of the LDH enzyme activity in the culture supernatant as measured with an ELISA plate reader, OD490 nm (the amount of color formed in the assay is proportional to the number of lysed cells). In this assay, human bronchial epithelial cells (I6HBEo14, HBE) cells were incubated with 100 μg of peptide for 24 hours, the supernatant removed and tested for LDH. The other assay used to measure toxicity of the cationic peptides was the WST-1 assay (Roche). This assay is a colorimetric assay for the quantification of cell proliferation and cell viability, based on the cleavage of the tetrazolium salt WST-1 by mitochondrial dehydrogenases in viable cells (a non-radioactive alternative to the [^3H]-thymidine incorporation assay). In this assay, HBE cells were incubated with 100 μg of peptide for 24 hours, and then 10 μl/well Cell Proliferation Reagent WST-1 was added. The cells are incubated with the reagent and the plate is then measured with an ELISA plate reader, OD490 nm.

HBE cells = assay: WST-1 assay (cell viability); assay type: cell-based, human
Protocol: as §2

[4] = system: A549 human epithelial cells; assay: Induction of chemokines (IL-8, MCP-1) in A549 cells (ELISA); assay type: cell-based; conditions: peptide 10 ug/ml, 24 hr
Protocol: The murine macrophage cell line RAW 264.7, THP-1 cells (human monocytes), a human epithelial cell line (A549), human bronchial epithelial cells (16HBEo14), and whole human blood were used. HBE cells were grown in MEM with Earle's. THP-1 cells were grown and maintained in RPMI 1640 medium. The RAW and A549 cell lines were maintained in DMEM supplemented with 10% fetal calf serum. […] DMEM was aspirated from cells grown overnight and replaced with fresh medium. After incubation of the cells with peptide, the release of chemokines into the culture supernatant was determined by ELISA (R&D Systems, Minneapolis, Minn.).

A549 epithelial cells = assay: Human Operon arrays (PRHU04-S1) of A549 cells treated with peptide alone (Tables 31-37, 53); conditions: 50 μg/ml, 4 h
[5] = Staphylococcus aureus, overnight, 96-well plate

SMILES | Inhibition of TNF-α [1] [%] | Survival (BALB/c mice) [%] | Viable Bacteria in the Spleen (Salmonella) | CFU/ml (blood) (S. aureus) | # Mice Survived (3 days)/Total mice in group (S. aureus) | MIC, C. rhod. ([2]; 24 h) [µg/mL] | MIC, E. coli ([2]; 24 h) [µg/mL] | MIC, EHEC ([2]; 24 h) [µg/mL] | MIC, S. aureus [2, 5] | IL-8 [4] [ng/mL] | MIC, P. aerug. ([2]; 24 h) [µg/mL] | MIC, S. typhim. ([2]; 24 h) [µg/mL] | further results
COc1cccc(-c2cc(=O)c3ccccc3o2)c1N [PD 98059] | – | – | – | – | – | – | – | – | – | – | – | – | Effect: bacterial filamentation (bacterial stress) (S. Typhimurium SL1344): Decrease bacterial filamentation (bacterial stress)^c; Effect: number of intracellular S. Typhimurium (S. Typhimurium SL1344): Increase in the number of intracellular S. Typhimurium
CC[C@H](C)[C@H](NC(=O)[C@H](CCCNC(=N)N)NC(=O)[C@H](CS)NC(=O)[C@H](CC(C)C)NC(=O)[C@@H](N)CC(C)C)C(=O)N[C@H](C(=O)N1CCC[C@H]1C(=O)N[C@H](C(=O)N[C@H](C(=O)N1CCC[C@H]1C(=O)N[C@@H](Cc1c[nH]c2ccccc12)C(=O)N[C@@H](CS)C(=O)N[C@@H](CCCCN)C(=O)O)[C@@H](C)CC)C(C)C)C(C)C [SEQ ID NO: 5] (H-LLCRIVPVIPWCK-OH; N-terminus and C-terminus assumed) | 65.6 ± 1.6 | 17 | 2.75 ± 0.59 × 10^4 CFU/ml | 3.28 ± 1.7 × 10^3 CFU/ml | 4/4 | 64 (≈ 41.6 µM) | 128 (≈ 83.1 µM) | 64 (≈ 41.6 µM) | > | – | – | – | –
CC[C@H](C)[C@H](NC(=O)[C@H](CS)NC(=O)[C@H](CCSC)NC(=O)[C@H](CCCNC(=N)N)NC(=O)[C@@H](N)CCCNC(=N)N)C(=O)N[C@@H](CCCCN)C(=O)N[C@H](C(=O)N[C@@H](CS)C(=O)N[C@H](C(=O)N[C@@H](CCCNC(=N)N)C(=O)NCC(=O)N[C@H](C(=O)N[C@@H](CS)C(=O)N[C@@H](CCCNC(=N)N)C(=O)N[C@@H](CCCNC(=N)N)C(=O)N[C@@H](CCCCN)C(=O)N[C@@H](CS)C(=O)N[C@@H](CCCNC(=N)N)C(=O)N[C@@H](CCCCN)C(=O)O)C(C)C)C(C)C)C(C)C [SEQ ID NO: 26] (H-RRMCIKVCVRGVCRRKCRK-OH; N-terminus and C-terminus assumed) | 54.9 ± 1.6 | 0 | 7.1 ± 1.37 × 10^4 CFU/ml | – | – | 2 (≈ 0.851 µM) | 0.5 (≈ 0.213 µM) | 0.5 (≈ 0.213 µM) | – | 0.201 | 64 (≈ 27.2 µM) | 2 (≈ 0.851 µM) | LDH Release (OD490 nm) [3]: 0.93 ± 0.04 OD490 nm; OD490 nm (WST-1 cell viability) (HBE cells): 1.42 ± 0.11 OD490 nm; MIC, S. aureus ([2]; 24 h): 32 µg/mL (≈ 13.6 µM)
CSCC[C@H](NC(=O)CNC(=O)[C@H](CCCNC(=N)N)NC(=O)[C@H](CCSC)NC(=O)[C@H](C)NC(=O)[C@@H](NC(=O)[C@H](CCCCN)NC(=O)[C@@H](NC(=O)[C@H](CS)NC(=O)[C@H](CCC(N)=O)NC(=O)[C@@H](N)CCCCN)C(C)C)C(C)C)C(=O)N[C@@H](C)C(=O)N[C@@H](CC(C)C)C(=O)N[C@@H](CCCNC(=N)N)C(=O)N[C@@H](CCCNC(=N)N)C(=O)N[C@@H](CS)C(=O)N[C@@H](CCCCN)C(=O)O [SEQ ID NO: 30] (H-KQCVKVAMRGMALRRCK-OH; N-terminus and C-terminus assumed) | – | – | 5.79 ± 0.43 × 10^3 CFU/ml | 1.29 ± 0.04 × 10^2 CFU/ml | 4/4 | 16 (≈ 8.09 µM) | 16 (≈ 8.09 µM) | 4 (≈ 2.02 µM) | > | 0.284 | 128 (≈ 64.7 µM) | 16 (≈ 8.09 µM) | Fold Up regulation of Gene Expression relative to Untreated Cells: Cell cycle gene (S70622) (A549 epithelial cells): 8.5 fold; Fold Up regulation of Gene Expression relative to Untreated Cells: Dehydrogenase (D17793) (A549 epithelial cells): 2.3 fold; Fold Up regulation of Gene Expression relative to Untreated Cells: Forkhead protein (AF042832) (A549 epithelial cells): 14.1 fold; Fold Up regulation of Gene Expression relative to Untreated Cells: Homeobox protein (AC004774) (A549 epithelial cells): 3.2 fold; Fold Up regulation of Gene Expression relative to Untreated Cells: Hypothetical Protein (AK002104) (A549 epithelial cells): 4.7 fold; Fold Up regulation of Gene Expression relative to Untreated Cells: Hypothetical Protein (AL022393) (A549 epithelial cells): 4.4 fold; Fold Up regulation of Gene Expression relative to Untreated Cells: IL-10 Receptor (U00672) (A549 epithelial cells): 2.6 fold; Fold Up regulation of Gene Expression relative to Untreated Cells: KIAA0284 Protein (AB006622) (A549 epithelial cells): 3.4 fold; Fold Up regulation of Gene Expression relative to Untreated Cells: Peroxisome factor (AB013818) (A549 epithelial cells): 3.4 fold; Fold Up regulation of Gene Expression relative to Untreated Cells: Polypeptide (AF105424) (A549 epithelial cells): 2.5 fold; Fold Up regulation of Gene Expression relative to Untreated Cells: Protein (AL050261) (A549 epithelial cells): 3.3 fold; Fold Up regulation of Gene Expression relative to Untreated Cells: Receptor (AF112461) (A549 epithelial cells): 2.4 fold; Fold Up regulation of Gene Expression relative to Untreated Cells: SPR1 protein (AB031480) (A549 epithelial cells): 3.0 fold; Fold Up regulation of Gene Expression relative to Untreated Cells: Transferase (AF038664) (A549 epithelial cells): 12.3 fold; Fold Up regulation of Gene Expression relative to Untreated Cells: Transferase (M63509) (A549 epithelial cells): 2.7 fold; Fold Up regulation of Gene Expression relative to Untreated Cells: Unknown (AL096803) (A549 epithelial cells): 4.8 fold; Fold Up regulation of Gene Expression relative to Untreated Cells: Zinc finger protein (AF061261) (A549 epithelial cells): 2.6 fold
